Data from US20170114029A1, “TREATMENT OF CHAGAS DISEASE” (UNIVERSITY OF DUNDEE, priority 2014, published 2017).
≈ marks a conversion by molar mass, not a printed value.

Tested on: T. cruzi Tulahuen strain C2C4
Assay: Activity against T. cruzi (beta-galactosidase expressing parasites in L-6 cells)
Type: cell-based, Trypanosoma cruzi
Conditions: trypomastigotes in rat skeletal myoblasts (L-6 cells), 96 h incubation, CPRG/Nonidet read at 540 nm; for IC50: Trypanosoma cruzi, TULAHUEN, L6, in Rattus norvegicus, 96 h, read-out: Activity (IC50)
Experimental: Activity against T. cruzi. Rat skeletal myoblasts (L-6 cells) were seeded in 96-well microtitre plates at 2000 cells/well in 100 μL RPMI 1640 medium with 10% FBS and 2 mM 1-glutamine. After 24 h the medium was removed and replaced by 100 μl per well containing 5000 trypomastigote forms of T. cruzi Tulahuen strain C2C4 containing the […] (Lac Z) gene (Buckner et al. 1996). After 48 h the medium was removed from the wells and replaced by 100 μl fresh medium with or without a serial drug dilution of eleven 3-fold dilution steps covering a range from 100 to 0.002 μg/ml. After 96 h of incubation the plates were inspected under an inverted microscope to assure growth of the controls and sterility. Then the substrate CPRG/Nonidet (50 μl) was added to all wells. A color reaction developed within 2-6 h and could be read photometrically at 540 nm. Data were analyzed with the graphic programme Softmax Pro (Molecular Devices), which calculated IC50 values by linear regression (Huber 1993) from the sigmoidal dose inhibition curves. Benznidazole is used as control (IC50 0.5±0.2 ug/ml). • Buckner, F. S., C. L. Verlinde, A. C. La Flamme, and W. C. Van Voorhis. 1996. Efficient technique for screening drugs for activity against Trypanosoma cruzi using parasites expressing beta-galactosidase, p. 2592-2597, vol. 40. • Huber, W. Koella, J. C. 1993. A comparison of the three methods of estimating EC50 in studies of drug resistance of malaria parasites. Acta Trop. 55, 257-261.

Compound	IC50 [µg/mL]	Activity (IC50) [µg/mL]
CC(=O)Nc1ccc2[nH]c(=O)n([C@H]3CC[C@H](C(F)(F)F)CC3)c(=O)c2c1 [Example 53, N-(2,4-dioxo-3-((1r,4r)-4-(trifluoromethyl)cyclohexyl)-1,2,3,4-tetrahydroquinazolin-6-yl)acetamide]	0.13 (≈ 0.352 µM)	–
CC(=O)N(C)c1ccc2c(c1)c(=O)n(CCC1CCCCC1)c(=O)n2C [Example 11, N-(3-(2-cyclohexylethyl)-1-methyl-2,4-dioxo-1,2,3,4-tetrahydroquinazolin-6-yl)-N-methylacetamide]	6.44 (≈ 18 µM)	–
CCC1CCC(n2c(=O)[nH]c3ncc(NC(C)=O)cc3c2=O)CC1 (stereo not drawn) [Example 35, N-[3-(trans-4-ethyl-cyclohexyl)-2,4-dioxo-1,2,3,4-tetrahydro-pyrido[2,3-d]pyhmidin-6-yl]-acetamide]	0.1 (≈ 0.303 µM)	–
Nc1ccc2[nH]c(=O)n(CCC3CCCCC3)c(=O)c2c1 [Example 9, 6-Amino-3-(2-cyclohexylethyl)quinazoline-2,4(1H,3H)-dione]	0.339 (≈ 1.18 µM)	–
CC(=O)Nc1ccc2[nH]c(=O)n(C3CCC(C(C)(C)C)C3)c(=O)c2c1 (stereo not shown) [Example 60, N-(3-(3-(Tert-butyl)cyclopentyl)-2,4-dioxo-1,2,3,4-tetrahydroquinazolin-6-yl)acetamide]	0.007 (≈ 0.0204 µM)	–
CC[C@H]1CC[C@@H](n2c(=O)[nH]c3ccc(N)cc3c2=O)CC1 [24 (cis), 6-Amino-3-(cis-4-ethyl-cyclohexyl)-1H-quinazoline-2,4-dione]	0.096 (≈ 0.334 µM)	–
CC(=O)Nc1cnc2[nH]c(=O)n(CCC3CCCCC3)c(=O)c2c1 [Example 39, N-(3-(2-cyclohexylethyl)-2,4-dioxo-1,2,3,4-tetrahydropyrido[2,3-d]pyrimidin-6-yl)acetamide]	0.755 (≈ 2.29 µM)	–
CC(C)(C)C1CCC(n2c(=O)[nH]c3ccc(-c4cccnc4)cc3c2=O)CC1 (stereo not shown) [Example 22, 3-(4-(tert-butyl)cyclohexyl)-6-(pyridin-3-yl)quinazoline-2,4(1H,3H)-dione]	2.63 (≈ 6.97 µM)	–
CCC1CCC(n2c(=O)[nH]c3ncc(NC(C)=O)cc3c2=O)CC1 (stereo not shown) [Example 36, N-(3-((1s,4s)-4-ethylcyclohexyl)-2,4-dioxo-1,2,3,4-tetrahydropyrido[2,3-d]pyrimidin-6-yl)acetamide]	–	0.110
COCCn1c(=O)[nH]c2ccc(NC(C)=O)cc2c1=O [Example 6, N-(3-(2-methoxyethyl)-2,4-dioxo-1,2,3,4-tetrahydroquinazolin-6-yl)acetamide]	9.62 (≈ 34.7 µM)	–
CC(=O)Nc1ccc2[nH]c(=O)n(CCC3CCCCC3)c(=O)c2c1 [Example 3, N-[3-(2-Cyclohexylethyl)-2,4-dioxo-1,2,3,4-tetrahydroquinazolin-6-yl]acetamide]	0.162 (≈ 0.492 µM)	–
CC(=O)Nc1ccc2[nH]c(=O)n(CCCN3CCOCC3)c(=O)c2c1 [Example 40, N-(3-(3-Morpholinopropyl)-2,4-dioxo-1,2,3,4-tetrahydroquinazolin-6-yl)acetamide]	55.3 (≈ 160 µM)	–
CC(=O)Nc1ccc2[nH]c(=O)n(CCC(C)C)c(=O)c2c1 [Example 4, N-(3-Isopentyl-2,4-dioxo-1,2,3,4-tetrahydroquinazolin-6-yl)acetamide]	2.81 (≈ 9.71 µM)	–
CC(=O)Nc1ccc2[nH]c(=O)n(CCCc3ccc(F)cc3)c(=O)c2c1 [Example 44, N-(3-(3-(4-fluorophenyl)propyl)-2,4-dioxo-1,2,3,4-tetrahydroquinazolin-6-yl)acetamide]	0.943 (≈ 2.65 µM)	–
CC(C)(C)[C@H]1CC[C@@H](n2c(=O)[nH]c3ncc(N)cc3c2=O)CC1 [Example 27, 6-Amino-3-((1 S,4S)-4-(tert-butyl)-cyclohexyl)pyrido[2,3-d]pyrimidine-2,4(1H.3H)-dione]	0.289 (≈ 0.913 µM)	–
CC(=O)Nc1ccc2[nH]c(=O)n([C@H]3CC[C@H](C(C)C)CC3)c(=O)c2c1 [Example 48, N-(3-((1r,4r)-4-Isopropylcyclohexyl)-2,4-dioxo-1,2,3,4-tetrahydroquinazolin-6-yl)acelamide]	0.018 (≈ 0.0524 µM)	–
CC[C@H]1CC[C@H](n2c(=O)[nH]c3ccc(NC(C)=O)cc3c2=O)CC1 [Example 56, N-(3-((1r,4r)-4-Ethylcyclohexyl)-2,4-dioxo-1,2,3,4-tetrahydroquinazolin-6-yl)acetamide]	0.015 (≈ 0.0455 µM)	–
CC(=O)Nc1ccc2[nH]c(=O)n([C@H]3CC[C@@H](C(C)(C)C)CC3)c(=O)c2c1 [Example 50, N-(3-((1s,4s)-4-(Tert-butyl)cyclohexyl)-2,4-dioxo-1,2,3,4-tetrahydroquinazolin-6-yl)acetamide]	0.005 (≈ 0.014 µM)	–
CC(=O)Nc1ccc2[nH]c(=O)n(C3CCC(C)CC3)c(=O)c2c1 (stereo not shown) [Example 59, N-(3-(4-methylcyclohexyl)-2,4-dioxo-1,2,3,4-tetrahydroquinazolin-6-yl)acetamide]	0.329 (≈ 1.04 µM)	–

Compound	IC50 [µg/mL]	Activity (IC50) [µg/mL]
CC(C)(C)[C@H]1CC[C@H](n2c(=O)[nH]c3ncc(N)cc3c2=O)CC1 [Example 26e, 6-Amino-3-(trans-4-tert-butyl-cyclohexyl)-1H-pyrido[2,3-d]pyrimidine-2,4-dione]	0.209 (≈ 0.661 µM)	–
Cc1noc(C)c1-c1ccc2[nH]c(=O)n(CCC3CCCCC3)c(=O)c2c1 [Example 16c, 3-(2-Cyclohexylethyl)-6-(3,5-dimethylisoxazol-4-yl)quinazoline-2,4(1H,3H)-dione]	11.5 (≈ 31.3 µM)	–
CC(=O)Nc1ccc2[nH]c(=O)n(CCCC3CCCCC3)c(=O)c2c1 [Example 5, N-[3-(3-Cyclohexyl-propyl)-2,4-dioxo-1,2,3,4-tetrahydro-quinazolin-6-yl]-acetamide]	0.163 (≈ 0.475 µM)	–
CC(=O)Nc1ccc2[nH]c(=O)n([C@H]3CC[C@H](C(C)(C)F)CC3)c(=O)c2c1 [Example 62, N-(3-((1r,4r)-4-(2-Fluoropropan-2-yl)cyclohexyl)-2,4-dioxo-1,2,3,4-tetrahydroquinazolin-6-yl)acetamide]	0.933 (≈ 2.58 µM)	–
CC[C@H]1CC[C@H](n2c(=O)[nH]c3ccc(N)cc3c2=O)CC1 [24 (trans), 6-Amino-3-(trans-4-ethyl-cyclohexyl)-1H-quinazoline-2,4-dione]	0.035 (≈ 0.122 µM)	–
CC(=O)Nc1ccc2[nH]c(=O)n(C3CCC(C)(C)CC3)c(=O)c2c1 [Example 52, N-(3-(4,4-dimethylcyclohexyl)-2,4-dioxo-1,2,3,4-tetrahydroquinazolin-6-yl)acetamide]	0.058 (≈ 0.176 µM)	–
CCCCCCn1c(=O)[nH]c2ccc(NC(C)=O)cc2c1=O [Example 41, N-(3-hexyl-2,4-dioxo-1,2,3,4-tetrahydroquinazolin-6-yl)acetamide]	0.881 (≈ 2.9 µM)	–
CC(=O)Nc1ccc2[nH]c(=O)n([C@H]3CC[C@@H](C(C)C)CC3)c(=O)c2c1 [Example 47, N-(3-((1s,4s)-4-Isopropylcyclohexyl)-2,4-dioxo-1,2,3,4-tetrahydroquinazolin-6-yl)acetamide]	0.087 (≈ 0.253 µM)	–
O=c1[nH]c2ccc(-c3cccnc3)cc2c(=O)n1CCC1CCCCC1 [Example 17, 3-(2-Cyclohexylethyl)-6-(pyridin-3-yl)quinazoline-2,4(1H,3H)-dione]	0.655 (≈ 1.87 µM)	–
CCNc1ccc2c(c1)c(=O)n(CCC1CCCCC1)c(=O)n2CC [Example 12b, 3-(2-cyclohexylethyl)-1-ethyl-6-(ethylamino)quinazoline-2,4(1H,3H)-dione]	7.7 (≈ 22.4 µM)	–
CC(C)(C)C(=O)Nc1ccc2[nH]c(=O)n(CCC3CCCCC3)c(=O)c2c1 [Example 15b, N-(3-(2-cyclohexylethyl)-2,4-dioxo-1,2,3,4-tetrahydroquinazolin-6-yl)pivalamide]	2.64 (≈ 7.11 µM)	–
CC(=O)Nc1cnc2[nH]c(=O)n([C@H]3CC[C@H](C(C)(C)C)CC3)c(=O)c2c1 [Example 33, N-[3-(trans-4-tert-Butyl-cyclohexyl)-2,4-dioxo-1,2,3,4-tetrahydro-pyrido[2,3-d]pyrimidin-6-yl]-acetamide]	0.196 (≈ 0.547 µM)	–
CC(C)(C)[C@H]1CC[C@H](n2c(=O)[nH]c3ccc(N)cc3c2=O)CC1 [23b (trans), 6-amino-3-(trans-4-tert-butyl-cyclohexyl)-1H-quinazoline-2,4-dione]	0.03 (≈ 0.0951 µM)	–
CCOC(=O)Nc1ccc2c(c1)c(=O)n(CCC1CCCCC1)c(=O)n2CC [Example 13c, Ethyl (3-(2-cyclohexylethyl)-1-ethyl-2,4-dioxo-1,2,3,4-tetrahydroquinazolin-6-yl)carbamate]	5.23 (≈ 13.5 µM)	–
CC[C@H]1CC[C@@H](n2c(=O)[nH]c3ccc(NC(C)=O)cc3c2=O)CC1 [Example 55, N-(3-((1s,4s)-4-Ethylcyclohexyl)-2,4-dioxo-1,2,3,4-tetrahydroquinazolin-6-yl)acetamide]	0.3 (≈ 0.911 µM)	–
CC(C)(C)[C@H]1CC[C@@H](n2c(=O)[nH]c3ccc(N)cc3c2=O)CC1 [23b (cis), 6-amino-3-(cis-4-tert-butyl-cyclohexyl)-1H-quinazoline-2,4-dione]	0.007 (≈ 0.0222 µM)	–
O=c1[nH]c2ccc(-c3ccncc3)cc2c(=O)n1CCC1CCCCC1 [Example 19, 3-(2-Cyclohexylethyl)-6-(pyridin-4-yl)quinazoline-2,4(1H,3H)-dione]	0.605 (≈ 1.73 µM)	–
CC(=O)Nc1ccc2[nH]c(=O)n(CCC3=CCCCC3)c(=O)c2c1 [Example 1c, N-[3-(2-Cyclohex-1-enyl-ethyl)-2,4-dioxo-1,2,3,4-tetrahydro-quinazolin-6-yl]-acetamide]	0.692 (≈ 2.11 µM)	–
